Results from US9944969B2, “Devices, systems and methods for detecting viable infectious agents in a fluid sample” (eSense, LLC, priority 2015, dated 2018).

Columns and labels:
[1] = test system: Staphylococcus saprophyticus; assay: pH change of sample effluent after exposure of Staphylococcus saprophyticus to anti-infective (ISFET sensor system, FIG. 10); format: cell-based; details: Staphylococcus saprophyticus from fluid sample; pH of sample effluent 60 minutes after exposure
Description: In these examples, Staphylococcus saprophyticus can be one of the infectious agents 102 present in the fluid sample 124 applied or introduced to the system 100.

E. coli = assay: pH change of sample effluent after exposure of E. coli to anti-infective (ISFET sensor system, FIG. 9); format: cell-based; details: for concentration of anti-infective to which the E. coli is resistant (change in pH): E. coli from fluid sample, pH of sample effluent 60 minutes after exposure
Description: FIG. 9 illustrates experimental results of experiments conducted using the methods and system 100 described herein. The graphs in FIG. 9 show a change in the solution characteristic 136 of the measured liquid 402, such as the sample effluent 134, monitored by the system 100 at a specific point in time. In this case, the graphs in FIG. 9 show the change in the solution characteristic 136 of the measured liquid 402 sixty (60) minutes after an anti-infective 104 is introduced to the filter 110, the substrate wells 200, or a combination thereof comprising the infectious agent 102.
In this example, E. coli can be one of the infectious agents 102 present in the fluid sample 124 applied or introduced to the system 100. […] An insignificant change in the solution characteristic 136 can be a change below a statistically significant percentage or threshold value.

Structure (SMILES) | concentration of anti-infective at which the Staphylococcus saprophyticus is susceptible [1] | concentration of anti-infective to which the Staphylococcus saprophyticus is resistant (change in pH) [1] | concentration of anti-infective to which the E. coli is resistant (change in pH) (E. coli) | MIC (E. coli; Escherichia coli, 1 h, read-out: minimal inhibitory concentration (MIC)) [µg/mL]
O=C1CN(/N=C/c2ccc([N+](=O)[O-])o2)C(=O)N1 [nitrofurantoin] | higher than 1 μg/ml | approximately 1 μg/ml | approximately 1 μg/ml | 1
O=C(O)c1cn(C2CC2)c2cc(N3CCNCC3)c(F)cc2c1=O [ciprofloxacin] |  |  | approximately 0.1 μg/ml | 
CC1(C)S[C@@H]2[C@H](NC(=O)[C@H](N)c3ccccc3)C(=O)N2[C@H]1C(=O)O [ampicillin] |  | up to 50 μg/ml |  | 
